Reference: ChEMBL document CHEMBL3763135, “Synthesis and evaluation of thiophene-based guanylhydrazones (iminoguanidines) efficient against panel of voriconazole-resistant fungal isolates” (Bioorg Med Chem, 2016)
Active and inactive are the calls of the source. No cut-off for these calls is given here.

Columns and labels:
Candida parapsilosis [1] = test: Antifungal activity against Candida parapsilosis C27 by broth dilution method; format: functional; conditions: Lodderomyces parapsilosis
Danio rerio [2] = species: Danio rerio; test: Toxicity against zebrafish embryo assessed as growth retardation at 2.5 ug/ml measured at 96 hrs post fertilization by inverted microscopic analysis; format: organism-based; conditions: in vivo
Danio rerio [3] = species: Danio rerio; test: Toxicity against zebrafish embryo assessed as effect on notochord at 2.5 ug/ml measured at 96 hrs post fertilization by inverted microscopic analysis; format: organism-based; conditions: in vivo
Danio rerio [4] = species: Danio rerio; test: Toxicity against zebrafish embryo assessed as head malformation at 5 ug/ml measured at 96 hrs post fertilization by inverted microscopic analysis; format: organism-based; conditions: in vivo
[5] = Hemolytic effect in sheep RBC assessed as release of hemoglobin at MIC after 1 hr; format: ADME, cell-based, Ovis aries, Erythrocyte; conditions: sheep red blood cells, read-out: Activity
Danio rerio [6] = species: Danio rerio; test: Toxicity against zebrafish embryo assessed as unhatched embryos at 25 ug/ml measured at 96 hrs post fertilization by inverted microscopic analysis; format: organism-based; conditions: in vivo
Danio rerio [7] = species: Danio rerio; test: Toxicity against zebrafish embryo assessed as growth retardation at 25 ug/ml measured at 96 hrs post fertilization by inverted microscopic analysis; format: organism-based; conditions: in vivo
Danio rerio [8] = species: Danio rerio; test: Toxicity against zebrafish embryo assessed as teratogenic embryos at 10 ug/ml measured at 96 hrs post fertilization by inverted microscopic analysis; format: organism-based; conditions: in vivo
Danio rerio [9] = species: Danio rerio; test: Toxicity against zebrafish embryo assessed as effect on heart beat at 25 ug/ml measured at 96 hrs post fertilization by inverted microscopic analysis; format: organism-based; conditions: in vivo
Danio rerio [10] = test: Toxicity against zebrafish embryo assessed as yolk edema at 10 ug/ml measured at 96 hrs post fertilization by inverted microscopic analysis; format: organism-based; conditions: in vivo
Danio rerio [11] = species: Danio rerio; test: Toxicity against zebrafish embryo assessed as effect on tail tip at 2.5 ug/ml measured at 96 hrs post fertilization by inverted microscopic analysis; format: organism-based; conditions: in vivo
[12] = Hemolytic effect in sheep RBC assessed as release of hemoglobin at cytotoxic IC50 after 1 hr; format: cell-based, Ovis aries, Erythrocyte; conditions: sheep red blood cells, read-out: Activity
Candida albicans [13] = test: Antifungal activity against Candida albicans CA5 assessed as fungal growth at sub-MIC measured over 12 hrs by time-kill dependence-based spectrophotometric analysis relative to DMSO control; format: functional
Candida parapsilosis [14] = test: Antibiofilm activity against Candida parapsilosis C27 assessed as disruption of preformed biofilm after 24 hrs by concanavalin A-FITC-staining based fluorescence microscopic analysis; format: functional
Danio rerio [15] = species: Danio rerio; test: Toxicity against zebrafish embryo assessed as head malformation at 25 ug/ml measured at 96 hrs post fertilization by inverted microscopic analysis; format: organism-based; conditions: in vivo
Danio rerio [16] = species: Danio rerio; test: Toxicity against zebrafish embryo assessed as unhatched embryos at 10 ug/ml measured at 96 hrs post fertilization by inverted microscopic analysis; format: organism-based; conditions: in vivo
Danio rerio [17] = species: Danio rerio; test: Toxicity against zebrafish embryo assessed as effect on eyes at 25 ug/ml measured at 96 hrs post fertilization by inverted microscopic analysis; format: organism-based; conditions: in vivo
Candida albicans [18] = test: Antibiofilm activity against Candida albicans ATCC 10231 assessed as disruption of preformed biofilm after 24 hrs by concanavalin A-FITC-staining based fluorescence microscopic analysis; format: functional
Danio rerio [19] = species: Danio rerio; test: Toxicity against zebrafish embryo assessed as effect on blood circulation at 25 ug/ml measured at 96 hrs post fertilization by inverted microscopic analysis; format: organism-based; conditions: in vivo
Danio rerio [20] = species: Danio rerio; test: Toxicity against zebrafish embryo assessed as normal embryos at 2.5 ug/ml measured at 96 hrs post fertilization by inverted microscopic analysis; format: organism-based; conditions: in vivo
Danio rerio [21] = species: Danio rerio; test: Toxicity against zebrafish embryo assessed as effect on otoliths at 25 ug/ml measured at 96 hrs post fertilization by inverted microscopic analysis; format: organism-based; conditions: in vivo
Danio rerio [22] = species: Danio rerio; test: Toxicity against zebrafish embryo assessed as unhatched embryos at 2.5 ug/ml measured at 96 hrs post fertilization by inverted microscopic analysis; format: organism-based; conditions: in vivo
Danio rerio [23] = species: Danio rerio; test: Toxicity against zebrafish embryo assessed as skeletal deformities at 25 ug/ml measured at 96 hrs post fertilization by inverted microscopic analysis; format: organism-based; conditions: in vivo
Danio rerio [24] = test: Toxicity against zebrafish embryo assessed as yolk edema at 25 ug/ml measured at 96 hrs post fertilization by inverted microscopic analysis; format: organism-based; conditions: in vivo
Danio rerio [25] = species: Danio rerio; test: Toxicity against zebrafish embryo assessed as effect on otoliths at 5 ug/ml measured at 96 hrs post fertilization by inverted microscopic analysis; format: organism-based; conditions: in vivo
Microsporum canis = test: Antifungal activity against Microsporum canis DMT2 by broth dilution method; format: functional
Danio rerio [26] = species: Danio rerio; test: Toxicity against zebrafish embryo assessed as effect on tail tip at 25 ug/ml measured at 96 hrs post fertilization by inverted microscopic analysis; format: organism-based; conditions: in vivo
Danio rerio [27] = species: Danio rerio; test: Toxicity against zebrafish embryo assessed as head malformation at 2.5 ug/ml measured at 96 hrs post fertilization by inverted microscopic analysis; format: organism-based; conditions: in vivo
Danio rerio [28] = species: Danio rerio; test: Toxicity against zebrafish embryo assessed as growth retardation at 5 ug/ml measured at 96 hrs post fertilization by inverted microscopic analysis; format: organism-based; conditions: in vivo
Danio rerio [29] = species: Danio rerio; test: Toxicity against zebrafish embryo assessed as effect on notochord at 25 ug/ml measured at 96 hrs post fertilization by inverted microscopic analysis; format: organism-based; conditions: in vivo
Danio rerio [30] = species: Danio rerio; test: Toxicity against zebrafish embryo assessed as effect on otoliths at 10 ug/ml measured at 96 hrs post fertilization by inverted microscopic analysis; format: organism-based; conditions: in vivo
Danio rerio [31] = species: Danio rerio; test: Toxicity against zebrafish embryo assessed as teratogenic embryos at 5 ug/ml measured at 96 hrs post fertilization by inverted microscopic analysis; format: organism-based; conditions: in vivo
Danio rerio [32] = test: Toxicity against zebrafish embryo assessed as pericardial edema at 25 ug/ml measured at 96 hrs post fertilization by inverted microscopic analysis; format: organism-based; conditions: in vivo
Danio rerio [33] = species: Danio rerio; test: Toxicity against zebrafish embryo assessed as effect on blood circulation at 5 ug/ml measured at 96 hrs post fertilization by inverted microscopic analysis; format: organism-based; conditions: in vivo
Danio rerio [34] = species: Danio rerio; test: Toxicity against zebrafish embryo assessed as effect on heart beat at 2.5 ug/ml measured at 96 hrs post fertilization by inverted microscopic analysis; format: organism-based; conditions: in vivo
Danio rerio [35] = test: Toxicity against zebrafish embryo assessed as pericardial edema at 10 ug/ml measured at 96 hrs post fertilization by inverted microscopic analysis; format: organism-based; conditions: in vivo
[36] = Hemolytic effect in sheep RBC assessed as release of hemoglobin at 10 ug/ml after 1 hr; format: ADME, cell-based, Ovis aries, Erythrocyte; conditions: sheep red blood cells, read-out: Activity
Candida albicans [37] = test: Antibiofilm activity against Candida albicans ATCC 10231 assessed as inhibition of hyphae formation at MIC after 24 hrs by concanavalin A-FITC-staining based fluorescence microscopic analysis; format: functional, organism-based
Danio rerio [38] = species: Danio rerio; test: Toxicity against zebrafish embryo assessed as effect on otoliths at 50 ug/ml measured at 96 hrs post fertilization by inverted microscopic analysis; format: organism-based; conditions: in vivo
Candida albicans [39] = test: Induction of apoptosis in Candida albicans CA5 assessed as nuclear condensation at MIC measured after 2 hrs by concavaline-FITC/PI/DAPI-staining based fluorescence microscopic analysis relative to DMSO control; format: functional, organism-based
Candida albicans [40] = test: Induction of membrane damage in Candida albicans CA5 at MIC measured after 2 hrs by concavaline-FITC/PI/DAPI-staining based fluorescence microscopic analysis relative to DMSO control; format: functional
Pichia kudriavzevii [41] = test: Antibiofilm activity against 48 hrs pre-formed Candida krusei ATCC 34135 assessed as inhibition of hyphae formation at MIC after 24 hrs by concanavalin A-FITC-staining based fluorescence microscopic analysis; format: functional, organism-based
[42] = Selectivity index, ratio of IC50 for human MRC5 cell to MIC for Candida albicans CA5
Pichia kudriavzevii [43] = test: Antibiofilm activity against Candida krusei ATCC 34135 assessed as inhibition of hyphae formation at MIC after 24 hrs by concanavalin A-FITC-staining based fluorescence microscopic analysis; format: functional, organism-based
Candida parapsilosis [44] = test: Antibiofilm activity against Candida parapsilosis C27 assessed as inhibition of hyphae formation at MIC after 24 hrs by concanavalin A-FITC-staining based fluorescence microscopic analysis; format: functional, organism-based

In the case of `Cl.N=C(N)N/N=C/c1ccc(-c2ccc(Br)cc2)s1`, the MIC (Candida parapsilosis [1]) is reported as 3.9 µg/mL, the Activity (Danio rerio [2]) is reported as 0% and the Activity (Danio rerio [3]) is reported as 0%. The Activity (Danio rerio [4]) was 0%, the hemolysis at 1 h [5] was ≤ 10% and the Activity (Danio rerio [6]) was 0%. The Activity (Danio rerio [7]) was 0%, the Activity (Danio rerio [8]) was 23.33% and the Activity (Danio rerio [9]) was 0%. The Activity (Danio rerio [10]) was 0%, the Activity (Danio rerio [11]) was 0% and the hemolysis at 1 h [12] was ≤ 10%. It also gave an Activity (Candida albicans [13]) of 50%, an MBEC (Candida parapsilosis [14]) of 125 µg/mL and an Activity (Danio rerio [15]) of 0%. It also gave an Activity (Danio rerio [16]) of 0%, an Activity (Danio rerio [17]) of 0% and an MBEC (Candida albicans [18]) of 125 µg/mL. For the same compound, the Activity (Danio rerio [19]) was 0%, the Activity (Danio rerio [20]) was 100% and the Activity (Danio rerio [21]) was 0%. It also gave an Activity (Danio rerio [22]) of 0%, an Activity (Danio rerio [23]) of 0% and an Activity (Danio rerio [24]) of 0%. For the same compound, the Activity (Danio rerio [25]) was 0%, the MIC (Microsporum canis) was 0.25 µg/mL and the Activity (Danio rerio [26]) was 100%. It also gave an Activity (Danio rerio [27]) of 0%, an Activity (Danio rerio [28]) of 0% and an Activity (Danio rerio [29]) of 0%. The Activity (Danio rerio [30]) was 0%, the Activity (Danio rerio [31]) was 10% and the Activity (Danio rerio [32]) was 100%. It also gave an Activity (Danio rerio [33]) of 0%, an Activity (Danio rerio [34]) of 0% and an Activity (Danio rerio [35]) of 33.33%.

With `Cl.Cl.N=C(N)N/N=C/c1ccc(-c2ccc(/C=N/NC(=N)N)s2)cc1` the MIC (Candida parapsilosis [1]) was 50 µg/mL, the Activity (Danio rerio [2]) was 0% and the Activity (Danio rerio [3]) was 0%. The Activity (Danio rerio [4]) was 0%, the Activity (Danio rerio [6]) was 0% and the Activity (Danio rerio [7]) was 0%. It also gave an Activity (Danio rerio [8]) of 0%, an Activity (Danio rerio [9]) of 0% and an Activity (Danio rerio [10]) of 0%. For the same compound, the Activity (Danio rerio [11]) was 0%, the hemolysis at 1 h, 10 ug/ml [36] was 20% and the Activity (Candida albicans [37]) was “Active”. It also gave an MBEC (Candida parapsilosis [14]) of 500 µg/mL, an Activity (Danio rerio [15]) of 0% and an Activity (Danio rerio [16]) of 0%. It also gave an Activity (Danio rerio [38]) of 0%, an Activity (Danio rerio [17]) of 0% and an MBEC (Candida albicans [18]) of 250 µg/mL. For the same compound, the Activity (Danio rerio [19]) was 0%, the Activity (Danio rerio [20]) was 100% and the Activity (Danio rerio [21]) was 0%. For the same compound, the Activity (Danio rerio [22]) was 0%, the Activity (Danio rerio [23]) was 0% and the Activity (Candida albicans [39]) was “inactive”. For the same compound, the Activity (Danio rerio [24]) was 0%, the Activity (Danio rerio [25]) was 0% and the MIC (Microsporum canis) was 0.97 µg/mL. For the same compound, the Activity (Danio rerio [26]) was 0%, the Activity (Danio rerio [27]) was 0% and the Activity (Candida albicans [40]) was 20%. The Activity (Danio rerio [28]) was 0%, the Activity (Danio rerio [29]) was 0% and the Activity (Pichia kudriavzevii [41]) was “inactive”. For the same compound, the Activity (Danio rerio [30]) was 0%, the “Selectivity Index” value [42] was 20 and the Activity (Danio rerio [31]) was 0%. The Activity (Pichia kudriavzevii [43]) was “Active”, the Activity (Danio rerio [32]) was 0% and the Activity (Danio rerio [33]) was 0%. The Activity (Danio rerio [34]) was 0%, the Activity (Candida parapsilosis [44]) was “Active” and the Activity (Danio rerio [35]) was 0%.

In the case of `Cc1ccc(-c2ccc(/C=N/NC(=N)N)s2)cc1.Cl`, the MIC (Candida parapsilosis [1]) is reported as 3.9 µg/mL, the Activity (Danio rerio [2]) is reported as 0% and the Activity (Danio rerio [3]) is reported as 0%. For the same compound, the Activity (Danio rerio [4]) was 100%, the hemolysis at 1 h [5] was ≤ 10% and the Activity (Danio rerio [8]) was 50%. For the same compound, the Activity (Danio rerio [10]) was 0%, the Activity (Danio rerio [11]) was 0% and the hemolysis at 1 h [12] was ≤ 10%. For the same compound, the Activity (Candida albicans [37]) was “Active”, the Activity (Candida albicans [13]) was 50% and the MBEC (Candida parapsilosis [14]) was 125 µg/mL. It also gave an Activity (Danio rerio [16]) of 0%, an MBEC (Candida albicans [18]) of 125 µg/mL and an Activity (Danio rerio [20]) of 56.67%. The Activity (Danio rerio [22]) was 0%, the Activity (Candida albicans [39]) was “inactive” and the Activity (Danio rerio [25]) was 62.5%. The MIC (Microsporum canis) was 1.56 µg/mL, the Activity (Danio rerio [27]) was 0% and the Activity (Danio rerio [28]) was 0%. For the same compound, the Activity (Pichia kudriavzevii [41]) was “Active”, the Activity (Danio rerio [30]) was 100% and the “Selectivity Index” value [42] was 5. For the same compound, the Activity (Danio rerio [31]) was 80%, the Activity (Pichia kudriavzevii [43]) was “Active” and the Activity (Danio rerio [33]) was 0%. The Activity (Danio rerio [34]) was 0%, the Activity (Candida parapsilosis [44]) was “Active” and the Activity (Danio rerio [35]) was 100%.
